In patent US20140242093A1, “METHODS AND COMPOSITIONS FOR MODULATING THE INNATE IMMUNE RESPONSE AND/OR MYOGENESIS IN A MAMMALIAN SUBJECT” (FRED HUTCHINSON CANCER RESEARCH CENTER, priority 2011, published 2014):

System: control human primary myoblasts
Assay: Expression microarray of primary myoblasts transduced with lentivirus carrying DUX4-fl, DUX4-s or GFP
Procedure: Primary human myoblasts were collected and cultured as previously described (Snider et al., 2010). Primary myoblasts were maintained at or below 70% confluency for proliferation. For differentiation, cells were allowed to reach 95-100% confluency in growth medium. Once confluency was reached, the cells were changed to differentiation medium (F10 media supplemented with 1% horse serum, 10 μg/mL insulin, and 10 μg/mL transferrin, penicillin/streptomycin) and maintained for 4 days. Human RD cells were grown in DMEM in 10% bovine calf serum (Hyclone) and penicillin/streptomycin. The primary myoblasts were transduced with lentivirus carrying DUX-fl, DUX4- or GFP (MOI=15).
Expression microarrays were performed on the transduced cells at 24 hours after transduction as follows. […] Samples were analyzed by Illumina Human Whole Genome microarrays. Probe intensities were corrected, normalized, and summarized by the Lumi package of Bioconductor (Du et al., 2008). Differentially expressed genes were identified by the LIMMA package of Bioconductor (Wettenhall and Smyth, 2004). Gene set enrichment analysis (GSEA) was performed using the Bioconductor GOstats package (Falcon and Gentleman, 2007).

Substance: DUX4-fl: full-length DUX4 protein (SEQ ID NO:110), expressed from lentiviral or pCS2 vectors or in vitro translated
- fc of DENND5A (expression array) (Refseq NM_015213.2): −1.037
- fc of FEM1B (expression array) (Refseq NM_015322.3): −0.5708
- fc of PANX1 (expression array) (Refseq NM_015368.3): −0.114
- fc of AASDHPPT (expression array) (Refseq NM_015423.2): −0.238
- MTHFD1L fc (Refseq NM_015440.3): −1.173
- C2orf32 fc (Refseq NM_015463.1): −1.1
- PVRL3 expression fc (Refseq NM_015480.1): 2.223
- NGDN expression fc (Refseq NM_015514.1): 2.058
- fc of RRM2B (expression array) (Refseq NM_015713.3): −1.01
- MBD2 expression fc (Refseq NM_015832.3): 1.818
- fc of MBTPS2 (expression array) (Refseq NM_015884.1): −0.6539
- ARS2 expression fc (Refseq NM_015908.4): 2.602
- GSTK1 fc (Refseq NM_015917.1): −1.079
- NOP58 expression fc (Refseq NM_015934.3): 1.887
- CRLF3 expression fc (Refseq NM_015986.2): 1.912
- fc of TTC15 (expression array) (Refseq NM_016030.5): −1.015
- ISOC1 expression fc (Refseq NM_016048.1): 2.003
- MED31 expression fc (Refseq NM_016060.2): 2.055
- fc of TRPV2 (expression array) (Refseq NM_016113.3): −1.02
- CERCAM fc (Refseq NM_016174.3): −1.121
- DBR1 expression fc (Refseq NM_016216.2): 3.379
- POLR3K expression fc (Refseq NM_016310.2): 1.95
- HERC5 expression fc (Refseq NM_016323.2, cultured human skeletal muscle): −3.202
- fc of CENPF (expression array) (Refseq NM_016343.3): −0.4122
- CWC15 expression fc (Refseq NM_016403.3): 2.643
- fc of TMEM9 (expression array) (Refseq NM_016456.2): −1.008
- RAB6B expression fc (Refseq NM_016577.3): 3.17
- SLC15A3 expression fc (Refseq NM_016582.1, cultured human skeletal muscle): −3.754
- FKBP11 fc (Refseq NM_016594.1): −1.125
- ARMCX1 fc (Refseq NM_016608.1): −1.116
- C8orf55 fc (Refseq NM_016647.2): −1.082
- HOXC13 fc (Refseq NM_017410.2): −1.107
- USP18 expression fc (Refseq NM_017414.3, cultured human skeletal muscle): −2.497
- PARP14 expression fc (Refseq NM_017554.1, cultured human skeletal muscle): −2.825
- fc of SLC43A3 (expression array) (Refseq NM_017611.2): −1.026
- NOTCH1 fc (Refseq NM_017617.3): −1.08
- KIF21A expression fc (Refseq NM_017641.2): 1.837
- fc of AHI1 (expression array) (Refseq NM_017651.3): −0.5927
- SAMD9 expression fc (Refseq NM_017654.2, cultured human skeletal muscle): −2.863
- FAM46C expression fc (Refseq NM_017709.3): 2.389
- RETSAT expression fc (Refseq NM_017750.2, cultured human skeletal muscle): −1.929
- LYAR expression fc (Refseq NM_017816.1): 1.977
- ZSCAN2 expression fc (Refseq NM_017894.4): 2.151
- HERC6 expression fc (Refseq NM_017912.3, cultured human skeletal muscle): −3.728
- PID1 fc (Refseq NM_017933.3): −1.128
- ZNHIT6 expression fc (Refseq NM_017953.2): 3.519
- C14orf102 expression fc (Refseq NM_017970.2): 2.529
- fc of WIPI1 (expression array) (Refseq NM_017983.4): −1.022
- RNF31 fc (Refseq NM_017999.4): −1.08
- FRMD4A fc (Refseq NM_018027.3): −1.164
- FAM90A1 expression fc (Refseq NM_018088.3): 3.636
- fc of RBM23 (expression array) (Refseq NM_018107.4): −1.022
- PNPO fc (Refseq NM_018129.2): −1.13
- SEC61A2 expression fc (Refseq NM_018144.2): 1.837
- NADSYN1 fc (Refseq NM_018161.4): −1.086
- TMEM140 expression fc (Refseq NM_018295.2, cultured human skeletal muscle): −2.946
- BRIX1 expression fc (Refseq NM_018321.3): 1.886
- DRAM1 fc (Refseq NM_018370.2): −1.087
- LSG1 expression fc (Refseq NM_018385.1): 1.994
- TBC1D2 fc (Refseq NM_018421.2): −1.075
- RRN3 expression fc (Refseq NM_018427.3): 2.068
- ZNF302 fc (Refseq NM_018443.2): −1.164
- fc of GLT8D1 (expression array) (Refseq NM_018446.2): −1.021
- BEX1 fc (Refseq NM_018476.3): −1.097
- SLC35E3 fc (Refseq NM_018656.2): −1.132
- DEFB103B expression fc (Refseq NM_018661.3): 2.499
- fc of SULF2 (expression array) (Refseq NM_018837.2): −1.048
- PDE7B fc (Refseq NM_018945.3): −1.116
- NANS expression fc (Refseq NM_018946.2): 1.872
- POLR1B expression fc (Refseq NM_019014.3): 1.904
- CCNJ expression fc (Refseq NM_019084.2): 2.695
- fc of HOXA5 (expression array) (Refseq NM_019102.2): −1.005
- PNO1 expression fc (Refseq NM_020143.2): 2.151
- KTELC1 fc (Refseq NM_020231.3): −1.073
- C1orf63 expression fc (Refseq NM_020317.3): 2.19
- ZMIZ1 fc (Refseq NM_020338.2): −1.165
- TRIM49 expression fc (Refseq NM_020358.2): 6.551
- LYRM1 fc (Refseq NM_020424.2): −1.126
- SLC44A2 fc (Refseq NM_020428.2): −1.158
- PCBP3 fc (Refseq NM_020528.1): −1.122
- NFKBIA expression fc (Refseq NM_020529.1, cultured human skeletal muscle): −3.004
- fc of RCN3 (expression array) (Refseq NM_020650.2): −1.062
- PELI1 expression fc (Refseq NM_020651.2): 2.886
- fc of FAM62B (expression array) (Refseq NM_020728.1): −0.7938
- HECW2 fc (Refseq NM_020760.1): −1.167
- ZNF319 fc (Refseq NM_020807.1): −1.119
- OSBPL8 expression fc (Refseq NM_020841.4): 1.95
- USP29 expression fc (Refseq NM_020903.2): 2.597
- fc of RNF213 (expression array) (Refseq NM_020914.3): −1.024
- fc of FAM160B1 (expression array) (Refseq NM_020940.3): −1.051
- fc of IGDCC4 (expression array) (Refseq NM_020962.1): −1.054
- RFPL1 expression fc (Refseq NM_021026.2): 6.264
- IFITM3 expression fc (Refseq NM_021034.2, cultured human skeletal muscle): −1.949
- NEFH expression fc (Refseq NM_021076.2): 1.936
- fc of SLC8A1 (expression array) (Refseq NM_021097.2): −0.4596
- PSAT1 fc (Refseq NM_021154.3): −1.076
- RAB40C fc (Refseq NM_021168.2): −1.168
- fc of SLC30A1 (expression array) (Refseq NM_021194.2): −0.3462
- CTDSP1 fc (Refseq NM_021198.1): −1.122
- ARHGAP22 fc (Refseq NM_021226.2): −1.084
- fc of NTN4 (expression array) (Refseq NM_021229.3): −1.022
- PELI2 expression fc (Refseq NM_021255.2): 2.782
- PLEKHA2 fc (Refseq NM_021623.1): −1.077
- AVPI1 expression fc (Refseq NM_021732.1): 2.022
- fc of FAM3A (expression array) (Refseq NM_021806.1): −1.022
- APOBEC3G expression fc (Refseq NM_021822.1, cultured human skeletal muscle): −2.012
- fc of C14orf93 (expression array) (Refseq NM_021944.1): −1.063
- HSPA2 expression fc (Refseq NM_021979.3): 3.67
- CXCL16 fc (Refseq NM_022059.1): −1.09
- NOD2 fc (Refseq NM_022162.1): −1.135
- IFIH1 expression fc (Refseq NM_022168.2, cultured human skeletal muscle): −3.705
- HS1BP3 fc (Refseq NM_022460.3): −1.078
- C14orf173 fc (Refseq NM_022489.2): −1.167
- FEZ1 fc (Refseq NM_022549.2): −1.073
- HIPK2 fc (Refseq NM_022740.2): −1.173
- fc of MOSC1 (expression array) (Refseq NM_022746.2): −1.034
- PARP12 expression fc (Refseq NM_022750.2, cultured human skeletal muscle): −3.165
- CRTC3 fc (Refseq NM_022769.3): −1.138
- FAM129B fc (Refseq NM_022833.2): −1.126
- IFI6 expression fc (Refseq NM_022872.2, cultured human skeletal muscle): −4.24
- FGFR3 expression fc (Refseq NM_022965.1): 3.112
- PRAMEF1 expression fc (Refseq NM_023013.1): 8.072
- PRAMEF2 expression fc (Refseq NM_023014.1): 6.439
- C8orf33 expression fc (Refseq NM_023080.1): 2.251
- GRAMD3 fc (Refseq NM_023927.1): −1.115
- NEUROG2 expression fc (Refseq NM_024019.2): 3.857
- NUP37 fc (Refseq NM_024057.2): −1.075
- PRRG4 expression fc (Refseq NM_024081.4): 2.369
- TRIM48 expression fc (Refseq NM_024114.2): 7.88
- DHX58 expression fc (Refseq NM_024119.2, cultured human skeletal muscle): −2.836
- PRKAG2 fc (Refseq NM_024429.1): −1.099
- fc of FAM65A (expression array) (Refseq NM_024519.2): −1.053
- fc of ZC3HAV1 (expression array) (Refseq NM_024625.3): −0.8233
- YRDC expression fc (Refseq NM_024640.3): 2.601
- NPEPL1 fc (Refseq NM_024663.3): −1.113
- SNIP1 expression fc (Refseq NM_024700.2): 2.104
- fc of FAM57A (expression array) (Refseq NM_024792.1): −1.045
- C13orf34 expression fc (Refseq NM_024808.2): 2.492
- fc of NUDT18 (expression array) (Refseq NM_024815.3): −1.034
- fc of ZNF672 (expression array) (Refseq NM_024836.1): −1.034
- C14orf159 expression fc (Refseq NM_024952.5, cultured human skeletal muscle): −2.07
- NRSN2 fc (Refseq NM_024958.1): −1.091
- SLC24A6 fc (Refseq NM_024959.2): −1.099
- CSRNP3 expression fc (Refseq NM_024969.2): 2.496
- fc of ULBP1 (expression array) (Refseq NM_025218.2): −1.025
- C6orf148 expression fc (Refseq NM_030568.2): 6.759
- KLHL15 expression fc (Refseq NM_030624.1): 3.373
- fc of ZBP1 (expression array) (Refseq NM_030776.1): −0.3281
- SLC2A10 fc (Refseq NM_030777.3): −1.119
- SYNC1 fc (Refseq NM_030786.1): −1.127
- PDRG1 expression fc (Refseq NM_030815.2): 1.783
- UNC93B1 expression fc (Refseq NM_030930.2, cultured human skeletal muscle): −1.961
- PPP1R14C expression fc (Refseq NM_030949.2): 3.049
- TRIM56 fc (Refseq NM_030961.1): −1.14
- fc of RNF146 (expression array) (Refseq NM_030963.2): −1.02
- ADPGK expression fc (Refseq NM_031284.3): 2.233
- C11orf68 fc (Refseq NM_031450.2): −1.142
- FAM107B expression fc (Refseq NM_031453.2): 2.529
- PARP9 expression fc (Refseq NM_031458.1, cultured human skeletal muscle): −2.098
- IFI27L2 fc (Refseq NM_032036.2): −1.137
- SFRS2B expression fc (Refseq NM_032102.2): 4.215
